# Experimental data: patent publication US11219603B2, “Stable dosage form of etidronate-cytarabine conjugate, and use thereof” (MAXWELL BIOTECH GROUP LTD., priority 2015, dated 2022)
# Assay: Compatibility with media for intravenous administration (Ara-CMP increase)
# Type: physicochemical
# Conditions: 25 mg/mL MBC-11, MgCl2:MBC-11 2:1, dextran 5%, diluted to 1 mg/mL in D5W; within one day
smiles,measurement,value
CC(O)(P(=O)(O)O)P(=O)(O)OP(=O)(O)OC[C@H]1O[C@@H](n2ccc(N)nc2=O)[C@@H](O)[C@@H]1O (stereo partly shown) [MBC-11],increase in Ara-CMP content,1%
